For eight molecules, GI50 and TGI results are on record in PubChem BioAssay (NCI).

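Results reflect a 48-hour exposure of cells in 96-well plates to compound at five concentrations. Here, GI50 denotes the concentration required for 50% inhibition of growth. TGI is the concentration that stops growth completely.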

Among the test systems are NCI-H522 lung; SF-295 CNS; ACHN renal; HCT-116 colon; OVCAR-3 ovarian; RPMI-8226 leukemia; SW-620 colon; 786-0 renal; EKVX NSCLC.
Holding throughout (assay): inhibition of tumour cell growth, NCI panel, 48 h

Turning to `O=c1oc2ccc(Cl)cc2c(=O)n1-c1ccc(I)cc1F`, the GI50 with NCI-H522 lung is 0.111 µM; in the assay with SF-295 CNS it was 1.03 µM; with ACHN renal it was 0.315 µM; with HCT-116 colon it was 0.255 µM; with OVCAR-3 ovarian, 0.177 µM; in the assay with RPMI-8226 leukemia, 0.0907 µM. Besides, the GI50 in the assay on SW-620 colon is 0.384 µM; in the assay with 786-0 renal, 1.36 µM; in the assay on EKVX NSCLC it was 0.444 µM. Moreover, the TGI came to 1.83 µM in the assay with NCI-H522 lung; 2.79 µM with SF-295 CNS; 7.51 µM in the assay on ACHN renal; 1.35 µM in the assay on HCT-116 colon; 13.3 µM in the assay on OVCAR-3 ovarian; 0.436 µM in the assay with RPMI-8226 leukemia. Further, the TGI with SW-620 colon was found to be 7.58 µM; in the assay with 786-0 renal it was 4.13 µM; with EKVX NSCLC it was 4.98 µM.

As for `C/C(=N\NC(N)=O)C(CN(C)C)C(c1ccccc1)c1c(O)c2ccccc2oc1=O` (stereo not given), the TGI in the assay on NCI-H522 lung, in the assay on SF-295 CNS, in the assay on ACHN renal, in the assay with HCT-116 colon, with OVCAR-3 ovarian and in the assay on RPMI-8226 leukemia was > 100 µM throughout. Further, the TGI with SW-620 colon, in the assay on 786-0 renal and in the assay with EKVX NSCLC was > 100 µM in each case.

`Nc1nc(OCc2ccccc2)nc2[nH]ncc12`: the GI50 with NCI-H522 lung was 25.5 µM; with SF-295 CNS, 16.9 µM; in the assay with ACHN renal, 25.5 µM; in the assay on HCT-116 colon, 19.7 µM; in the assay on OVCAR-3 ovarian it was 11.5 µM; in the assay with RPMI-8226 leukemia, 15.2 µM. For the same molecule, the GI50 in the assay with SW-620 colon is 18.9 µM; in the assay on 786-0 renal, 18.7 µM; with EKVX NSCLC, 38.6 µM. For the same molecule, the TGI in the assay with NCI-H522 lung was > 100 µM; with SF-295 CNS, 31.1 µM; in the assay with ACHN renal, > 100 µM; with HCT-116 colon it was 39 µM; in the assay with OVCAR-3 ovarian it was 25.2 µM; in the assay on RPMI-8226 leukemia it was 38.6 µM. Also, the TGI was 39.3 µM in the assay on SW-620 colon, 44.4 µM in the assay with 786-0 renal and > 100 µM with EKVX NSCLC.

For `Clc1ccc2nc(Oc3ccccc3)cnc2c1`, the GI50 in the assay on NCI-H522 lung, in the assay on SF-295 CNS, in the assay on ACHN renal, in the assay with HCT-116 colon, in the assay with OVCAR-3 ovarian and in the assay with RPMI-8226 leukemia was > 100 µM throughout. For the same molecule, the GI50 with SW-620 colon, with 786-0 renal and with EKVX NSCLC was > 100 µM in each case. In addition, the TGI with NCI-H522 lung, in the assay with SF-295 CNS, in the assay with ACHN renal, with HCT-116 colon, in the assay on OVCAR-3 ovarian and in the assay with RPMI-8226 leukemia was > 100 µM in each case. Besides, the TGI in the assay on SW-620 colon, in the assay with 786-0 renal and in the assay with EKVX NSCLC was > 100 µM each time.

On to `NCc1ccc(-n2c(-c3nonc3N)nc3cnccc32)cc1`, for which the GI50 was 7.66 µM in the assay on NCI-H522 lung; 16 µM in the assay with SF-295 CNS; 5.68 µM with ACHN renal; 2.69 µM with HCT-116 colon; 7.13 µM with OVCAR-3 ovarian; > 23.2 µM in the assay with RPMI-8226 leukemia. In addition, the results for the GI50 in the assay with SW-620 colon, in the assay with 786-0 renal and with EKVX NSCLC were 7.1 µM, 7.51 µM and > 25 µM, respectively. In addition, the TGI in the assay on NCI-H522 lung, with SF-295 CNS, in the assay on ACHN renal, in the assay with HCT-116 colon, with OVCAR-3 ovarian and in the assay with RPMI-8226 leukemia was > 25 µM throughout. The TGI in the assay with SW-620 colon, in the assay on 786-0 renal and in the assay with EKVX NSCLC was > 25 µM in each case.

For the molecule `Cc1cc(N2CCCC2)nc(N(CCCNc2ccnc3cc(Cl)ccc23)Cc2ccc3c(c2)OCO3)n1`, the GI50 in the assay with NCI-H522 lung was 1.66 µM; in the assay with SF-295 CNS, 1.16 µM; in the assay with ACHN renal, 1.67 µM; with HCT-116 colon, 0.511 µM; with OVCAR-3 ovarian, 1.06 µM; in the assay on RPMI-8226 leukemia, 0.322 µM. In addition, the results for the GI50 with SW-620 colon, in the assay with 786-0 renal and in the assay on EKVX NSCLC were 1.21 µM, 1.11 µM and 3.16 µM, respectively. In addition, the TGI is 3.95 µM with NCI-H522 lung; 2.89 µM in the assay with SF-295 CNS; 5.93 µM with ACHN renal; 3.3 µM with HCT-116 colon; 2.87 µM in the assay on OVCAR-3 ovarian; 1.72 µM with RPMI-8226 leukemia. The results for the TGI in the assay on SW-620 colon, with 786-0 renal and with EKVX NSCLC were 2.87 µM, 2.8 µM and > 100 µM, respectively.

For `CCc1c[nH]c2ncnc(N3CC[C@@](N)(CNC(=O)c4ccc(F)cc4F)C3)c12`, the GI50 in the assay on NCI-H522 lung was 29.6 µM; with SF-295 CNS, 26.2 µM; with ACHN renal, 23.8 µM; with HCT-116 colon, 25 µM; in the assay with OVCAR-3 ovarian it was 69.1 µM; in the assay with RPMI-8226 leukemia it was 28.6 µM. For the same molecule, the GI50 in the assay with SW-620 colon is 31.3 µM; in the assay on 786-0 renal it was 25.9 µM; in the assay with EKVX NSCLC, 35 µM. In addition, the TGI with NCI-H522 lung was > 75.7 µM; with SF-295 CNS it was > 100 µM; in the assay on ACHN renal, > 100 µM; in the assay with HCT-116 colon it was > 100 µM; in the assay with OVCAR-3 ovarian, > 100 µM; in the assay on RPMI-8226 leukemia, > 100 µM. Moreover, the TGI in the assay on SW-620 colon was > 100 µM; with 786-0 renal, > 85.5 µM; in the assay on EKVX NSCLC, > 100 µM.

As to `COc1cc2cc(Oc3ccc(NC(=O)c4ccc(Cl)c(C(F)(F)F)c4)cc3)c(C)nc2cc1OC`, the GI50 is 8.78 µM with NCI-H522 lung; 2.28 µM in the assay on SF-295 CNS; 10.8 µM with ACHN renal; 4.18 µM in the assay on HCT-116 colon; 7.94 µM in the assay with OVCAR-3 ovarian; 5.43 µM with RPMI-8226 leukemia. Further, the results for the GI50 with SW-620 colon, in the assay with 786-0 renal and in the assay on EKVX NSCLC were 33.7 µM, 12.1 µM and 5.76 µM, respectively. The TGI with NCI-H522 lung is 83.3 µM; with SF-295 CNS, 25.7 µM; with ACHN renal, > 100 µM; in the assay on HCT-116 colon it was 88.9 µM; with OVCAR-3 ovarian, 54 µM; in the assay on RPMI-8226 leukemia, 32.7 µM. Also, the TGI is > 100 µM with SW-620 colon, > 100 µM in the assay with 786-0 renal and 83.3 µM with EKVX NSCLC.
